Experimental data as given in PubChem BioAssay AID248 (DTP/NCI, 2004).
Several values for one entry are separate records, joined by “and”; a condition that tells them apart may be missing. Equal entries are not always repeated. Toxic doses and inconclusive results are not listed. Cut-off read from the data, not from the text of the source: active = T/C of 150% or more; inactive = T/C below 125%. Square brackets hold non-standard residues; d marks the D form. Peptide text beside a SMILES is read from it. * marks the point of attachment. ξ: configuration not given here. ξF = NC(Cc1ccccc1)C(=O)O; Cbz = O=C(OCc1ccccc1)*; CH2Cl = ClC*

Tested on: L1210 leukemia ip in BDF1 mice, survival T/C
Test: NCI In Vivo Anticancer Drug Screen. Data for tumor model L1210 Leukemia (intraperitoneal) in B6D2F1 (BDF1) mice
Settings: endpoint: mean survival time, higher = longer survival
Summary of the method: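 Survival endpoint. Drug-treated group vs vehicle group, expressed as T divided by C. Tumor passaged by transplantation.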

[1] = dose: 100.0 mg/kg/injection, schedule: Q01DX009 (ip), vehicle: saline with Tween-80
[2] = dose: 100.0 mg/kg/injection, schedule: Q04DX002 (ip), vehicle: saline with Tween-80
[3] = dose: 100.0 mg/kg/injection, schedule: Q04DX003 (ip), vehicle: saline
[4] = dose: 200.0 mg/kg/injection, schedule: Q01DX009 (ip), vehicle: saline with Tween-80
[5] = dose: 200.0 mg/kg/injection, schedule: Q04DX002 (ip), vehicle: saline with Tween-80
[6] = dose: 200.0 mg/kg/injection, schedule: Q04DX003 (ip), vehicle: saline
[7] = dose: 400.0 mg/kg/injection, schedule: Q01DX009 (ip), vehicle: saline with Tween-80
[8] = dose: 400.0 mg/kg/injection, schedule: Q04DX002 (ip), vehicle: saline with Tween-80
[9] = dose: 400.0 mg/kg/injection, schedule: Q04DX003 (ip), vehicle: saline
[10] = dose: 100.0 mg/kg/injection, schedule: Q04DX003 (ip), vehicle: other
[11] = dose: 200.0 mg/kg/injection, schedule: Q04DX003 (ip), vehicle: other
[12] = dose: 400.0 mg/kg/injection, schedule: Q04DX003 (ip), vehicle: other
[13] = dose: 100.0 mg/kg/injection, schedule: Q01DX001 (ip), vehicle: saline
[14] = dose: 200.0 mg/kg/injection, schedule: Q01DX001 (ip), vehicle: saline
[15] = dose: 400.0 mg/kg/injection, schedule: Q01DX001 (ip), vehicle: saline
[16] = dose: 100.0 mg/kg/injection, schedule: Q04DX003 (ip), vehicle: Klucel (hydroxypropylcellulose) (HPC)
[17] = dose: 50.0 mg/kg/injection, schedule: Q01DX001 (ip), vehicle: Klucel (hydroxypropylcellulose) (HPC)
[18] = dose: 25.0 mg/kg/injection, schedule: Q04DX003 (ip), vehicle: Klucel (hydroxypropylcellulose) (HPC)
[19] = dose: 50.0 mg/kg/injection, schedule: Q04DX003 (ip), vehicle: Klucel (hydroxypropylcellulose) (HPC)

Measured: T/C

CC(C)(C)NC(=O)NC1CCCCC1
inactive: dose: 100.0 mg/kg/injection, schedule: Q01DX001 (ip), vehicle: saline with Tween-80 95 % of control | [1] 94 % of control and 110 % of control | [2] 97 % of control and 100 % of control | [3] 101 % of control | dose: 200.0 mg/kg/injection, schedule: Q01DX001 (ip), vehicle: saline with Tween-80 98 % of control | [4] 100 % of control and 87 % of control | [5] 97 % of control | [6] 111 % of control | dose: 400.0 mg/kg/injection, schedule: Q01DX001 (ip), vehicle: saline with Tween-80 95 % of control | [7] 100 % of control and 115 % of control | [8] 94 % of control and 90 % of control | [9] 101 % of control

CC1=C2CC(C)(C)/C=C\C(=O)/C(C)=C\C3=C[C@H](C)C[C@]3(O2)C1=O
inactive: dose: 11.0 mg/kg/injection, schedule: Q01DX009 (ip), vehicle: saline 112 % of control | dose: 16.0 mg/kg/injection, schedule: Q01DX009 (ip), vehicle: saline 106 % of control | dose: 24.0 mg/kg/injection, schedule: Q01DX009 (ip), vehicle: saline 116 % of control

C=CSCCCCCCCC
inactive: [10] 103 % of control | [11] 97 % of control | [12] 97 % of control

Cc1cc2nnc(C)n2c2ccccc12
inactive: dose: 50.0 mg/kg/injection, schedule: Q01DX001 (ip), vehicle: saline 103 % of control | [13] 103 % of control

CC(=O)NC(C(=O)O)C(C)C (centres undefined)
inactive: [13] 97 % of control | [14] 87 % of control | [15] 99 % of control

Cc1ccc(S(=O)(=O)N2CCCC(Br)(Br)C(=O)c3ccccc32)cc1
inactive: [16] 100 % of control | dose: 200.0 mg/kg/injection, schedule: Q04DX003 (ip), vehicle: Klucel (hydroxypropylcellulose) (HPC) 97 % of control | dose: 400.0 mg/kg/injection, schedule: Q04DX003 (ip), vehicle: Klucel (hydroxypropylcellulose) (HPC) 96 % of control

CC12CCC3C(CCC4CC5SC5CC43C)C1CCC2O (centres undefined)
inactive: dose: 100.0 mg/kg/injection, schedule: Q04DX002 (ip), vehicle: Klucel (hydroxypropylcellulose) (HPC) 108 % of control | dose: 200.0 mg/kg/injection, schedule: Q04DX002 (ip), vehicle: Klucel (hydroxypropylcellulose) (HPC) 111 % of control | dose: 400.0 mg/kg/injection, schedule: Q04DX002 (ip), vehicle: Klucel (hydroxypropylcellulose) (HPC) 101 % of control

C[n+]1cccc2cccc(C(=O)O)c21
inactive: dose: 75.0 mg/kg/injection, schedule: Q01DX001 (ip), vehicle: saline 100 % of control | dose: 150.0 mg/kg/injection, schedule: Q01DX001 (ip), vehicle: saline 94 % of control

CC(=O)c1ccc(NC(=O)c2ccc(C(=O)Nc3ccc(C(C)=O)cc3)cc2)cc1
inactive: [13] 100 % of control | [14] 96 % of control | [15] 102 % of control

Cc1ccc(SSc2ccc(C)cc2)cc1
inactive: dose: 75.0 mg/kg/injection, schedule: Q01DX009 (ip), vehicle: saline 108 % of control | [3] 101 % of control | [6] 103 % of control | [9] 88 % of control

CC(C)(COS(C)(=O)=O)COS(C)(=O)=O
inactive: [17] 95 % of control | dose: 100.0 mg/kg/injection, schedule: Q01DX001 (ip), vehicle: Klucel (hydroxypropylcellulose) (HPC) 93 % of control | dose: 200.0 mg/kg/injection, schedule: Q01DX001 (ip), vehicle: Klucel (hydroxypropylcellulose) (HPC) 93 % of control | dose: 400.0 mg/kg/injection, schedule: Q01DX001 (ip), vehicle: Klucel (hydroxypropylcellulose) (HPC) 101 % of control

COC(CCC#N)c1ccc(C)cc1 (centres undefined)
inactive: dose: 100.0 mg/kg/injection, schedule: Q01DX009 (sc), vehicle: olive oil, sesame oil, peanut oil 102 % of control | dose: 100.0 mg/kg/injection, schedule: Q04DX003 (sc), vehicle: olive oil, sesame oil, peanut oil 108 % of control | dose: 200.0 mg/kg/injection, schedule: Q01DX009 (sc), vehicle: olive oil, sesame oil, peanut oil 91 % of control | dose: 200.0 mg/kg/injection, schedule: Q04DX003 (sc), vehicle: olive oil, sesame oil, peanut oil 108 % of control | dose: 400.0 mg/kg/injection, schedule: Q01DX009 (sc), vehicle: olive oil, sesame oil, peanut oil 98 % of control | dose: 400.0 mg/kg/injection, schedule: Q04DX003 (sc), vehicle: olive oil, sesame oil, peanut oil 96 % of control

O=C/C(Br)=C\c1ccccc1
inactive: dose: 25.0 mg/kg/injection, schedule: Q01DX009 (ip), vehicle: Klucel (hydroxypropylcellulose) (HPC) 95 % of control | [18] 100 % of control | dose: 50.0 mg/kg/injection, schedule: Q01DX009 (ip), vehicle: Klucel (hydroxypropylcellulose) (HPC) 90 % of control | [19] 100 % of control | dose: 100.0 mg/kg/injection, schedule: Q01DX009 (ip), vehicle: Klucel (hydroxypropylcellulose) (HPC) 105 % of control | [16] 93 % of control and 105 % of control

COc1cc(/C(C)=C2\SC(=O)NC2=O)ccc1O
inactive: [13] 106 % of control | [14] 95 % of control | [15] 98 % of control

O=C(CNC(=O)OCc1ccccc1)NCC(=O)NC(Cc1ccccc1)C(=O)CCl (stereo not drawn) (Cbz-Gly-Gly-[ξF]-CH2Cl)
inactive: dose: 12.0 mg/kg/injection, schedule: Q01DX001 (ip), vehicle: Klucel (hydroxypropylcellulose) (HPC) 106 % of control | dose: 25.0 mg/kg/injection, schedule: Q01DX001 (ip), vehicle: Klucel (hydroxypropylcellulose) (HPC) 97 % of control | [18] 98 % of control | [17] 108 % of control | [19] 98 % of control | [16] 104 % of control

CCc1nc2c(OC)ccc(OC)c2[nH]c1=O
inactive: [10] 103 % of control | [11] 103 % of control | [12] 106 % of control

Cc1ccc(Sc2cccc3c2C(=O)c2c(Sc4ccc(C)cc4)cccc2C3(Br)c2ccccc2)cc1
inactive: [1] 87 % of control | dose: 100.0 mg/kg/injection, schedule: Q04DX003 (ip), vehicle: saline with Tween-80 95 % of control | dose: 200.0 mg/kg/injection, schedule: Q04DX003 (ip), vehicle: saline with Tween-80 97 % of control | [7] 97 % of control | dose: 400.0 mg/kg/injection, schedule: Q04DX003 (ip), vehicle: saline with Tween-80 88 % of control

CCOc1ccc(OC/C=C(\C)CCC=C(C)C)cc1
inactive: [1] 103 % of control | [2] 101 % of control | [4] 92 % of control | [5] 94 % of control | [8] 94 % of control

O=C(NCCCl)NC(CO)C(=O)O (centres undefined)
inactive: [3] 98 % of control | [6] 93 % of control | [9] 95 % of control
